Columns and labels:
Schistosoma mansoni [1] = assay: Antischistosomal activity against Schistosoma mansoni isolated from infected Syrian golden hamsters assessed as worm mortality at 100 uM treated for overnight followed by drug washout measured on day 5 relative to control; format: functional
Schistosoma mansoni [2] = assay: Antischistosomal activity against Schistosoma mansoni isolated from infected Syrian golden hamsters assessed as worm mortality at 75 uM treated for overnight followed by drug washout measured on day 5 relative to control; format: functional
Schistosoma mansoni [3] = assay: Antischistosomal activity against Schistosoma mansoni isolated from infected Syrian golden hamsters assessed as worm mortality at 50 uM treated for overnight followed by drug washout measured on day 5 relative to control; format: functional
Schistosoma mansoni [4] = assay: Antischistosomal activity against Schistosoma mansoni isolated from infected Syrian golden hamsters assessed as worm mortality at 25 uM treated for overnight followed by drug washout measured on day 5 relative to control; format: functional
Schistosoma mansoni [5] = assay: Antischistosomal activity against Schistosoma mansoni isolated from infected Syrian golden hamsters assessed as worm mortality at 12.5 uM treated for overnight followed by drug washout measured on day 5 relative to control; format: functional
Schistosoma mansoni [6] = assay: Antischistosomal activity against Schistosoma mansoni isolated from infected Syrian golden hamsters assessed as worm mortality at 5 uM treated for overnight followed by drug washout measured on day 5; format: functional
Schistosoma mansoni [7] = assay: Antischistosomal activity against Schistosoma mansoni isolated from infected Syrian golden hamsters assessed as worm mortality treated for overnight followed by drug washout measured on day 5; format: functional, organism-based; settings: 120 h

| Structure (SMILES) | Activity (Schistosoma mansoni [1]) [%] | Activity (Schistosoma mansoni [2]) [%] | Activity (Schistosoma mansoni [3]) [%] | Activity (Schistosoma mansoni [4]) [%] | Activity (Schistosoma mansoni [5]) [%] | Activity (Schistosoma mansoni [6]) [%] | EC50 (Schistosoma mansoni [7]) [µM] |
| --- | --- | --- | --- | --- | --- | --- | --- |
| CCCCCCCCCCCCCCCCCCOCCOP(=O)(O)CO[C@H](CO)Cn1cnc2c(N)nc(N)nc21 | 40 | 40 | 33 | 14 | 8 | 7 | > 100 |
| CCCCCCCCCCCCCCCCOCCCOP1(=O)CO[C@@H](Cn2cnc3c(N)ncnc32)CO1 (stereo partly specified) | 93.3 | 84.6 | 78.6 | 69.2 | 53.8 | 50 | 5 |
| CCCCCCCCCCCCCCCCCCOCCOP(=O)(O)CO[C@H](CO)Cn1cnc2c(=O)[nH]c(N)nc21 | 33 | 36 | 20 | 15 | 7 | 13 | > 100 |
| CCCCCCCCCCCCCCCCOCCCOP1(=O)CO[C@@H](Cn2ccc(N)nc2=O)CO1 (stereo partly specified) | 100 | 64 | 67 | 36 | 33 | 13 | 28 |
| Nc1ncnc2c1ncn2C[C@@H](CO)OCP(=O)(O)O | 13 | 12.5 | 7 | 7 | 6.25 | 6.7 | > 100 |
| CCCCCCCCCCCCCCCCOCCCOP(=O)(O)CO[C@H](CO)Cn1cnc2c(N)ncnc21 | 30.8 | 28.6 | 32.3 | 18.8 | 12.5 | 6.25 | > 100 |
| CCCCCCCCCCCCCCCCCCOCCOP(=O)(O)CO[C@H](CO)Cn1cnc2c(N)ncnc21 | 47 | 33 | 40 | 25 | 12.5 | 12.5 | > 100 |
| O=C(C1CCCCC1)N1CC(=O)N2CCc3ccccc3C2C1 (stereo unspecified) [PRAZIQUANTEL] | 100 | 100 | 100 | 100 | 100 | 100 | 0.22 |

Reference: ChEMBL document CHEMBL1649251, “Antischistosomal activity of hexadecyloxypropyl cyclic 9-(S)-[3-hydroxy-2-(phosphonomethoxy)propyl]adenine and other alkoxyalkyl esters of acyclic nucleoside phosphonates assessed by schistosome worm killing in vitro” (Antimicrob Agents Chemother, 2009)
